Measured values: patent publication EP1038533A1, “MEDICINAL COMPOSITIONS FOR TREATING IMMUNODEFICIENCY DISEASES” (Nippon Kayaku Kabushiki Kaisha, priority 1997, dated 1999)
Where two headings read alike, the source gives them in different places.

Experiments:
[1] = test system: HIV (human immunodeficiency virus); assay: Test Example 2: clinical administration of 15-deoxyspergualin injection to five HIV positive carriers; type: in vivo; conditions: 0.15 mg/kg body weight/day i.v. 14 days per course; for fatigue (malaise) of the worst kind: 3 courses
Procedure: (§1) The therapeutic effect of 15-deoxyspergualin for immunodeficiency was clinically investigated by administering the compound to HIV-infected patients. The details are shown below.
To five (5) carriers diagnosed as HIV positive, the 15-deoxyspergualin injection was intravenously administered for consecutive 14 days in a dose of 0.15 mg/kg body weight/day. This cycle was made one course. Then, no drug period was set for 6 weeks followed by repetition with 2 courses with the same interval between the second course and the third course, as well. The CD4^+ cell count, CD4^+ /CD8^+ level and virus load, etc. were measured immediately before and after each course and 6 weeks after the completion of Course 3, respectively.

[2] = test system: HIV (human immunodeficiency virus); type: in vivo; conditions: patient
Procedure: as §1
To a patient who was diagnosed as a HIV positive 1 year and 10 months ago, the 15-deoxyspergualin injection of Example 1 later described was intravenously administered for consecutive 15 days in a dose of 0.15 mg/kg body weight/day. This cycle was made one course. Then, no drug period was set for 6 weeks followed by repetition with 2 courses with the same interval between the second course and the third couse, as well.
The CD4^+/CD8^+ level was measured immediately before and after each course and, 3 months and 2 years after the completion of Course 3, namely, 8 measurements in total.

[3] = Case 1, 6 Weeks after completion of Course 3
[4] = Case 1, Immediately after Course 1
[5] = Case 1, Immediately after Course 2
[6] = Case 1, Immediately after Course 3
[7] = Case 1, Immediately before Course 1 (before treatment)
[8] = Case 1, Immediately before Course 2
[9] = Case 1, Immediately before Course 3
[10] = Case 2, 6 Weeks after completion of Course 3
[11] = Case 2, Immediately after Course 1
[12] = Case 2, Immediately after Course 2
[13] = Case 2, Immediately after Course 3
[14] = Case 2, Immediately before Course 1 (before treatment)
[15] = Case 2, Immediately before Course 2
[16] = Case 2, Immediately before Course 3
[17] = Case 3, 6 Weeks after completion of Course 3
[18] = Case 3, Immediately after Course 1
[19] = Case 3, Immediately after Course 2
[20] = Case 3, Immediately after Course 3
[21] = Case 3, Immediately before Course 1 (before treatment)
[22] = Case 3, Immediately before Course 2
[23] = Case 3, Immediately before Course 3
[24] = Case 4, 6 Weeks after completion of Course 3
[25] = Case 4, Immediately after Course 1
[26] = Case 4, Immediately after Course 2
[27] = Case 4, Immediately after Course 3
[28] = Case 4, Immediately before Course 1 (before treatment)
[29] = Case 4, Immediately before Course 2
[30] = Case 4, Immediately before Course 3
[31] = Case 5, 6 Weeks after completion of Course 3
[32] = Case 5, Immediately after Course 1
[33] = Case 5, Immediately after Course 2
[34] = Case 5, Immediately after Course 3
[35] = Case 5, Immediately before Course 1 (before treatment)
[36] = Case 5, Immediately before Course 2
[37] = Case 5, Immediately before Course 3
[38] = throughout the entire period of the treatment

leucocyte count [2, 38]: approximately 6200
Structure (SMILES): N=C(N)NCCCCCCC(=O)NC(O)C(=O)NCCCCNCCCN (centres unmarked) [15-deoxyspergualin]
CD4^+ T cell counts [1, 3]: 760 µL⁻¹ | CD4^+/CD8^+ levels [1, 3]: 0.93 | Virus loads [1, 3]: 6000 particles/ml | CD4^+ T cell counts [1, 4]: 680 µL⁻¹ | CD4^+/CD8^+ levels [1, 4]: 0.82 | Virus loads [1, 4]: 8600 particles/ml | CD4^+ T cell counts [1, 5]: 740 µL⁻¹ | CD4^+/CD8^+ levels [1, 5]: 0.86 | Virus loads [1, 5]: 8000 particles/ml | CD4^+ T cell counts [1, 6]: 750 µL⁻¹ | CD4^+/CD8^+ levels [1, 6]: 0.93 | Virus loads [1, 6]: 7000 particles/ml | CD4^+ T cell counts [1, 7]: 680 µL⁻¹ | CD4^+/CD8^+ levels [1, 7]: 0.78 | Virus loads [1, 7]: 12000 particles/ml | CD4^+ T cell counts [1, 8]: 730 µL⁻¹ | CD4^+/CD8^+ levels [1, 8]: 0.80 | Virus loads [1, 8]: 9000 particles/ml | CD4^+ T cell counts [1, 9]: 720 µL⁻¹ | CD4^+/CD8^+ levels [1, 9]: 0.85 | Virus loads [1, 9]: 8200 particles/ml | CD4^+ T cell counts [1, 10]: 740 µL⁻¹ | CD4^+/CD8^+ levels [1, 10]: 0.78 | Virus loads [1, 10]: 13000 particles/ml | CD4^+ T cell counts [1, 11]: 740 µL⁻¹ | CD4^+/CD8^+ levels [1, 11]: 0.72 | Virus loads [1, 11]: 13000 particles/ml | CD4^+ T cell counts [1, 12]: 730 µL⁻¹ | CD4^+/CD8^+ levels [1, 12]: 0.77 | Virus loads [1, 12]: 14000 particles/ml | CD4^+ T cell counts [1, 13]: 750 µL⁻¹ | CD4^+/CD8^+ levels [1, 13]: 0.79 | Virus loads [1, 13]: 14000 particles/ml | CD4^+ T cell counts [1, 14]: 750 µL⁻¹ | CD4^+/CD8^+ levels [1, 14]: 0.76 | Virus loads [1, 14]: 15000 particles/ml | CD4^+ T cell counts [1, 15]: 750 µL⁻¹ | CD4^+/CD8^+ levels [1, 15]: 0.78 | Virus loads [1, 15]: 13000 particles/ml | CD4^+ T cell counts [1, 16]: 760 µL⁻¹ | CD4^+/CD8^+ levels [1, 16]: 0.80 | Virus loads [1, 16]: 15000 particles/ml | CD4^+ T cell counts [1, 17]: 800 µL⁻¹ | CD4^+/CD8^+ levels [1, 17]: 0.90 | Virus loads [1, 17]: 6000 particles/ml | CD4^+ T cell counts [1, 18]: 570 µL⁻¹ | CD4^+/CD8^+ levels [1, 18]: 0.73 | Virus loads [1, 18]: 11000 particles/ml | CD4^+ T cell counts [1, 19]: 600 µL⁻¹ | CD4^+/CD8^+ levels [1, 19]: 0.75 | Virus loads [1, 19]: 7000 particles/ml | CD4^+ T cell counts [1, 20]: 720 µL⁻¹ | CD4^+/CD8^+ levels [1, 20]: 0.90 | Virus loads [1, 20]: 6000 particles/ml | CD4^+ T cell counts [1, 21]: 550 µL⁻¹ | CD4^+/CD8^+ levels [1, 21]: 0.69 | Virus loads [1, 21]: 17000 particles/ml | CD4^+ T cell counts [1, 22]: 590 µL⁻¹ | CD4^+/CD8^+ levels [1, 22]: 0.72 | Virus loads [1, 22]: 11000 particles/ml | CD4^+ T cell counts [1, 23]: 650 µL⁻¹ | CD4^+/CD8^+ levels [1, 23]: 0.84 | Virus loads [1, 23]: 8000 particles/ml | CD4^+ cell counts [1, 24]: 910 µL⁻¹ | CD4^+/CD8^+ levels [1, 24]: 0.92 | Virus loads [1, 24]: 13000 particles/ml | CD4^+ cell counts [1, 25]: 710 µL⁻¹ | CD4^+/CD8^+ levels [1, 25]: 0.75 | Virus loads [1, 25]: 20000 particles/ml | CD4^+ cell counts [1, 26]: 760 µL⁻¹ | CD4^+/CD8^+ levels [1, 26]: 0.85 | Virus loads [1, 26]: 18000 particles/ml | CD4^+ cell counts [1, 27]: 850 µL⁻¹ | CD4^+/CD8^+ levels [1, 27]: 0.94 | Virus loads [1, 27]: 15000 particles/ml | CD4^+ cell counts [1, 28]: 640 µL⁻¹ | CD4^+/CD8^+ levels [1, 28]: 0.73 | Virus loads [1, 28]: 25000 particles/ml | CD4^+ cell counts [1, 29]: 770 µL⁻¹ | CD4^+/CD8^+ levels [1, 29]: 0.83 | Virus loads [1, 29]: 20000 particles/ml | CD4^+ cell counts [1, 30]: 840 µL⁻¹ | CD4^+/CD8^+ levels [1, 30]: 0.90 | Virus loads [1, 30]: 17000 particles/ml | CD4^+ cell counts [1, 31]: 900 µL⁻¹ | CD4^+/CD8^+ levels [1, 31]: 0.90 | Virus loads [1, 31]: 6000 particles/ml | CD4^+ cell counts [1, 32]: 750 µL⁻¹ | CD4^+/CD8^+ levels [1, 32]: 0.80 | Virus loads [1, 32]: 6000 particles/ml | CD4^+ cell counts [1, 33]: 820 µL⁻¹ | CD4^+/CD8^+ levels [1, 33]: 0.83 | Virus loads [1, 33]: 6500 particles/ml | CD4^+ cell counts [1, 34]: 890 µL⁻¹ | CD4^+/CD8^+ levels [1, 34]: 0.87 | Virus loads [1, 34]: 6000 particles/ml | CD4^+ cell counts [1, 35]: 780 µL⁻¹ | CD4^+/CD8^+ levels [1, 35]: 0.79 | Virus loads [1, 35]: 6000 particles/ml | CD4^+ cell counts [1, 36]: 810 µL⁻¹ | CD4^+/CD8^+ levels [1, 36]: 0.81 | Virus loads [1, 36]: 7000 particles/ml | CD4^+ cell counts [1, 37]: 880 µL⁻¹ | CD4^+/CD8^+ levels [1, 37]: 0.85 | Virus loads [1, 37]: 6500 particles/ml | fatigue (malaise) of the worst kind ([1]; Cases 1, 3 and 4): improved | fatigue (malaise) of the worst kind ([1]; Cases 2 and 5): no change | CD4^+/CD8^+ level ([2]; 0.15 mg/kg body weight/day i.v. 15 days per course, 2 Years after completion of Course 3): 0.90 | CD4^+/CD8^+ level ([2]; 0.15 mg/kg body weight/day i.v. 15 days per course, 3 Months after completion of Course 3): 0.93 | CD4^+/CD8^+ level ([2]; 0.15 mg/kg body weight/day i.v. 15 days per course, Immediately after Course 1): 0.72 | CD4^+/CD8^+ level ([2]; 0.15 mg/kg body weight/day i.v. 15 days per course, Immediately after Course 2): 0.75 | CD4^+/CD8^+ level ([2]; 0.15 mg/kg body weight/day i.v. 15 days per course, Immediately after Course 3): 0.84 | CD4^+/CD8^+ level ([2]; 0.15 mg/kg body weight/day i.v. 15 days per course, Immediately before Course 1 (before treatment)): 0.68 | CD4^+/CD8^+ level ([2]; 0.15 mg/kg body weight/day i.v. 15 days per course, Immediately before Course 2): 0.78 | CD4^+/CD8^+ level ([2]; 0.15 mg/kg body weight/day i.v. 15 days per course, Immediately before Course 3): 0.87 | decrease of CD4^+/CD8^+ level immediately after Courses 2 and 3 versus immediately before the courses ([2]; 0.15 mg/kg body weight/day i.v. 15 days per course, attributed to weak bone marrow suppression): 0.03 | complaint of fatigue ([2]; 0.15 mg/kg body weight/day i.v. 15 days, after Course 1 was finished): disappeared completely | other side effect [2, 38]: no other side effect was observed at all
